Results published in patent US6306853A, “1,4-Dihydropyridine derivatives” (Nikken Chemicals Co., Ltd., priority 1998, dated 2001).
Where “and” joins values, the source holds several entries; their conditions need not be identical. Identical values can stand only once.

Columns and labels:
[1] = test system: VCR resistant murine leukemia (P388/VCR) cells; test: In vivo overcoming of resistance in VCR resistant murine leukemia (P388/VCR) bearing mice, etoposide with compound 20 mg/kg; design: species or system CDF1 female mice; details: for Average days of survival / Rate of prolongation of life T/C: VP-16 3 mg/kg + compound 20 mg/kg
Experimental: In Vivo Test of Action Suppressing Proliferation of Cancer Cells by Combined Administration of Anti-cancer Drug Etoposide
Effect of Overcoming Resistance to an Anti-cancer Drug for VCR Resistant Murine Leukemia Cell Bearing Mice
(§1) 1.2×10^5 VCR resistant murine leukemia (P388/VCR) cells were transplanted intravenously into groups of 5-6 CDF1 female mice, then the compound of the present invention (20 mg/kg) and Etoposide (VP-16) (3 mg/kg) were administered intravenously once per day for 5 days, after dissolving them in a physiological salt solution containing a small amount of hydrochloric acid. The observation was started from the next day. The number of survival days were found and the life prolonging rate (T/C) with respect to the controls was found. The effect in overcoming resistance to an anti-cancer drug (T/V) was found by the following formula.
(§2) Effect of overcoming resistance to the anti-cancer drug (T/V) %
(§3) =[(Rate of prolongation of life using VP-16 and the present compound (T/C))/(Rate of prolongation of life using VP-16 alone (T/C))]×100

[2] = test system: VCR resistant murine leukemia (P388/VCR) cells; test: In vivo overcoming of resistance in VCR resistant murine leukemia (P388/VCR) bearing mice, etoposide with compound 10 mg/kg; design: species or system CDF1 female mice; details: for Average days of survival / Effect of overcoming resistance T/V / Rate of prolongation of life T/C: VP-16 3 mg/kg + compound 10 mg/kg; for Effect of overcoming resistance T/V: vs VP-16 alone
Experimental: as §1, §2, §3
In Vivo Test of Action Suppressing Proliferation of Cancer Cells by Combined Administration of Anti-Cancer Drug Etoposide
The Test Example 3 was repeated using 10 mg/kg administration of the present compound and the effects of overcoming resistance to the anti-cancer drug were determined from the average days of survival.

[3] = test system: thoracic aorta of the rat; test: Action easing KCl contraction in rat arteries; details: rat thoracic aorta ring, 50 mM KCl, compound 10^-6 M; read-out: Inhibitory rate of hyperpotassium contraction at 10^-6 M
Experimental: Action Easing KCl Contraction in Rat Arteries
The specimen was stabilized for approximately 60 minutes, then a potassium chloride solution was added to the Magnus tube to give a final concentration of 50 mM. The positive control compound or the compound of the present invention was cumulatively added to become 1×10^-6 M when the contraction reaction occurring at that time reached equilibrium. The contraction force was recorded by an FD-pickup (Nihon Koden) via a polygraph (Nihon Koden).

[4] = i.v. once per day for 5 days, vs control
[5] = VP-16 alone 3 mg/kg, reference = 100

Row | SMILES | Average days of survival ([1]; i.v. once per day for 5 days) [days] | Rate of prolongation of life T/C [1, 4] [%] | also measured
1 | CCOC(=O)C1=C(c2ccc(-n3c(C)nc4cnccc43)cc2)NC(C)=C(C(=O)OCC#Cc2cccnc2)C1C1CCCCC1 (centres unmarked) [Compound 4, 4-Cyclohexyl-6-methyl-2-[4-(2-methylimidazo[4,5-c]pyridin-1-yl)phenyl]-1,4-dihydropyridin-3,5-dicarboxylate 3-ethylester 5-[3-(3-pyridyl)-2-propynyl]ester] | 14.8 | 161 | –
2 | CCOC(=O)C1=C(c2ccc(-n3c(C)nc4cnccc43)cc2)NC(C)=C(C(=O)OCC#Cc2cccnc2)C1C(C)c1ccccc1 (stereo not drawn) [Compound 7, 6-Methyl-4-(α-methylbenzyl)-2-[4-(2-methylimidazo[4,5-c]pyridin-1-yl)phenyl]-1,4-dihydropyridin-3,5-dicarboxylate 3-ethylester 5-[3-(3-pyridyl)-2-propynyl]ester] | 13.4 | 146 | –
3 | CCOC(=O)C1=C(c2ccc(-n3c(C)nc4cnccc43)cc2)NC(C)=C(C(=O)OCC#Cc2cccnc2)C1/C=C/c1ccccc1 (centres unmarked) [Compound 10, 6-Methyl-2-[4-(2-methylimidazo[4,5-c]pyridin-1-yl)phenyl]-4-[(E)-2-phenylethenyl]-1,4-dihydropyridin-3,5-dicarboxylate 3-ethylester 5-[3-(3-pyridyl)-2-propynyl]ester] | 17.0 | 185 | –
4 | CCOC(=O)C1=C(c2ccc(-n3c(C)nc4cnccc43)cc2)NC(C)=C(C(=O)OCC#Cc2cccnc2)C1CCc1ccccc1Cl (centres unmarked) [Compound 11, 4-[2-(2-Chlorophenyl)ethyl]-6-methyl-2-[4-(2-methylimidazo[4,5-c]pyridin-1-yl)phenyl]-1,4-dihydropyridin-3 ,5-dicarboxylate 3-ethylester 5-[3-(3-pyridyl)-2-propynyl]ester] | 15.8 | 155 | –
5 | CCOC(=O)C1=C(c2ccc(-n3c(C)nc4cnccc43)cc2)NC(C)=C(C(=O)OCC#Cc2cccnc2)C1/C=C/c1ccccc1Cl (centres unmarked) [Compound 12, 4-[(E)-2-(2-chlorophenyl)ethenyl]-6-methyl-2-[4-(2-methylimidazo[4,5-c]pyridin-1-yl)phenyl]-1,4-dihydropyridin-3,5-dicarboxylate 3-ethylester 5-[3-(3pyridyl)-2-propynyl]ester] | 16.8 | 165 | –
6 | CCOC(=O)C1=C(c2ccc(-n3c(C)nc4cnccc43)cc2)NC(C)=C(C(=O)OCC#Cc2cccnc2)C1CCc1ccccc1OC (centres unmarked) [Compound 13, 4-[2-(2-methoxyphenyl)ethyl]-6-methyl-2-[4-(2-methylimidazo[4,5-c]pyridin-1-yl)phenyl]-1,4-dihydropyridin-3,5-dicarboxylate 3-ethylester 5-[3-(3-pyridyl)-2-propynyly]ester] | 15.7 | 154 | –
7 | CCOC(=O)C1=C(c2ccc(-n3c(C)nc4cnccc43)cc2)NC(C)=C(C(=O)OCC#Cc2cnc3ccccc3c2)C1CCc1ccccc1 (centres unmarked) [Compound 18, 6-Methyl-2-[4-(2-methylimidazo[4,5-c]pyridin-1-yl)phenyl]-4-(2-phenylethyl)-1,4-dihydropyridin-3,5-dicarboxylate 3-ethylester 5-[3-(3-quinolyl)-2-propynyl]ester] | 16.0 | 157 | –
8 | CCOC(=O)C1=C(c2ccc(-n3c(C)nc4cnccc43)cc2)NC(C)=C(C(=O)OCC#Cc2cnc3ccccc3c2)C1/C=C/c1ccccc1 (centres unmarked) [Compound 19, 6-Methyl-2-[4-(2-methylimidazo[4,5-c]pyridin-1-yl)phenyl]-4-[(E)-2-(2-phenyl)ethenyl]-1,4-dihydropyridin-3,5-dicarboxylate 3-ethylester 5-[(3-quonolyl)-2-propynyl]ester] | 16.0 | 157 | –
9 | CCOC(=O)C1=C(c2ccc(-n3c(C)nc4cnccc43)cc2)NC(C)=C(C(=O)OCC#Cc2cncc3ccccc23)C1/C=C/c1ccccc1 (centres unmarked) [Compound 20] | 14.7 | 144 | –
10 | CCOC(=O)C1=C(c2ccc(-n3c(C)nc4cnccc43)cc2)NC(C)=C(C(=O)OC(C)C#Cc2cccnc2)C1CCc1ccccc1 (centres unmarked) [Compound 23, 6-Methyl-2-[4-(2-methylimidazo[4,5-c]pyridin-1-yl)phenyl]-4-(2-phenylethyl)-1,4-dihydropyridin-3,5-dicarboxylate 3-ethylester 5-[1-methyl-3-(3-pyridyl)-2-propynyl]ester] | 15.8 | 172 | Average days of survival [2]: 13.0 days; Effect of overcoming resistance T/V [2]: 123%; Rate of prolongation of life T/C ([2]; vs control): 125%
11 | CCOC(=O)C1=C(c2ccc(-n3c(C)nc4cnccc43)cc2)NC(C)=C(C(=O)OCCC#Cc2cccnc2)C1CCc1ccccc1 (centres unmarked) [Compound 47, 6-Methyl-2-[4-(2-methylimidazo[4,5-c]pyridin-1-yl)phenyl]-4-(2-phenylethyl)-1,4-dihydropyridin-3,5-dicarboxylate 3-ethylester 5-[4-(3-pyridyl)-3-butynyl]ester] | 15.2 | 148 | –
12 | CCOC(=O)C1=C(c2ccc(-n3c(C)nc4cnccc43)cc2)NC(C)=C(C(=O)OCC#Cc2cccnc2)C1CC(c1ccccc1)c1ccccc1 (centres unmarked) [Compound 60] | 16.3 | 158 | –
13 | CCOC(=O)C1=C(c2ccc(-n3c(C)nc4cnccc43)cc2)NC(C)=C(C(=O)OCC#Cc2cccnc2)C1CC1c2ccccc2C2C(c3ccccc31)C2(F)F (centres unmarked) [Compound 66, 4-(1,1-Difluoro-1,1a,6, 10b-tetrahydrodibenzoa,[a,e]cyclopropa[c]cyclohepten-6-ylmethyl)-6-methyl-2-[4-(2-methylimidazo[4,5-c]pyridin-1-yl)phenyl]-1,4-dihydropyridin-3,5-dicarboxylate 3-ethylester 5-[3-(3-pyridyl)-2-propynyl]ester] | 14.5 | 141 | –
14 | CCOC(=O)C1=C(c2ccc(-n3c(C)nc4cnccc43)cc2)NC(C)=C(C(=O)OCC#Cc2cccnc2)C1C=C1c2ccccc2C2C(c3ccccc31)C2(F)F (centres unmarked) [Compound 67, 4-(1,1-Difluoro-1,1a,6,10b-tetrahydrodibenzo[a,e]cyclopropa[c]cyclohepten-6-ylidenemethyl)-6-methyl-2-[4-(2-methylimidazo[4,5-c]pyridin-1-yl)phenyl]-1,4-dihydropyridin-3,5-dicarboxylate 3-ethylester 5-[3-(3-pyridyl)-2-propynyl]ester] | 14.3 | 139 | –
15 | CCOC(=O)C1=C(c2ccc(-n3c(C(C)C)nc4cnccc43)cc2)NC(C)=C(C(=O)OCC#Cc2cccnc2)C1CC(c1ccccc1)c1ccccc1 (centres unmarked) [Compound 71, 4-(2,2-Diphenylethyl)-2-[4-(2-isopropylimidazo[4,5-c]pyridin-1-yl)phenyl]-6-methyl-1,4-dihydropyridin-3,5-dicarboxylate 3-ethylester 5-[3-(3-pyridyl)-2-propynyl]ester] | – | – | Average days of survival [2]: 17.4 days; Effect of overcoming resistance T/V [2]: 164%; Rate of prolongation of life T/C ([2]; vs control): 167%
16 | CCOC(=O)C1=C(c2ccc(-n3c(C)nc4cnccc43)cc2)NC(C)=C(C(=O)OCC#Cc2cccnc2)C1CC(c1ccc(F)cc1)c1ccc(F)cc1 (centres unmarked) [Compound 78] | – | – | Average days of survival [2]: 14.2 days; Effect of overcoming resistance T/V [2]: 134%; Rate of prolongation of life T/C ([2]; vs control): 137%
17 | COc1cc([C@@H]2c3cc4c(cc3[C@@H](O[C@@H]3O[C@@H]5CO[C@@H](C)O[C@H]5[C@H](O)[C@H]3O)[C@H]3COC(=O)[C@H]23)OCO4)cc(OC)c1O [VP-16, Etoposide, reference compound] | – | – | Average days of survival (VP-16 alone) ([2]; VP-16 alone 3 mg/kg): 10.6 days; Effect of overcoming resistance T/V (VP-16 alone) [2, 5]: 100%; Rate of prolongation of life T/C (VP-16 alone) ([2]; VP-16 alone 3 mg/kg, vs control): 102%; Average days of survival (VP-16 alone) ([1]; VP-16 alone 3 mg/kg, i.v. once per day for 5 days): 9.5 days and 11.0 days and 10.5 days; Rate of prolongation of life T/C (VP-16 alone) ([1]; VP-16 alone 3 mg/kg, i.v. once per day for 5 days, vs control): 103% and 108% and 102%; Effect of overcoming resistance T/V (VP-16 alone) [1, 5]: 100%
18 | COc1ccc(CCN(C)CCCC(C#N)(c2ccc(OC)c(OC)c2)C(C)C)cc1OC (centres unmarked) [Verapamil, reference compound] | – | – | inhibition at 1 µM [3]: 42.3%
